According to ChEMBL document CHEMBL1201862, “PubChem BioAssay data set” (2004):
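Where inhibition never reached the appropriate level, the endpoint shown equals the highest concentration tested. Otherwise, values were interpolated linearly from a five-concentration, 48-hour dose response in 96-well plates. GI50 marks 50% less growth.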 Active and inactive are the calls of the source. Cut-off read from the data, not from the text of the source: active = GI50 up to about 1.1 µM and inactive = higher. *1 amine or outer side, *2 acyl side, *3 side chain or, on linkers, in order; H or OH if unused. Where a SMILES comes first, the peptide text is derived from it. Bridges are numbered along the chain shown (N, C = ends). [ ]: non-standard residue; d: D form. X36 = CC[C@H](C)[C@@H](N[*:1])[C@@H](O)CC(=O)O[C@H](C(=O)[C@H](C)C(=O)[*:2])C(C)C; NMeY = CN[C@@H](Cc1ccc(O)cc1)C(=O)O

Key:
Test in all cases: DTP human tumour cell line panel, 48 h
SR = tested on: SR
CAKI-1 = tested on: CAKI-1
K562 = tested on: K562
SN12C = tested on: SN12C
HL-60 = tested on: HL-60
IGROV-1 = tested on: IGROV-1
HOP-92 = tested on: HOP-92
SF-539 = tested on: SF-539
A549 = tested on: A549
NCI-H226 = tested on: NCI-H226
MDA-MB-435 = tested on: MDA-MB-435
786-0 = tested on: 786-0
T47D = tested on: T47D
MDA-N = tested on: MDA-N
M14 = tested on: M14
SNB-19 = tested on: SNB-19
SK-MEL-2 = tested on: SK-MEL-2
SF-295 = tested on: SF-295
SNB-75 = tested on: SNB-75
Hs-578T = tested on: Hs-578T

Row | Structure (SMILES) | GI50 (SR) | GI50 (CAKI-1) | GI50 (K562) | GI50 (SN12C) | GI50 (HL-60) | GI50 (IGROV-1) | GI50 (HOP-92) | GI50 (SF-539) | GI50 (A549) | GI50 (NCI-H226) | GI50 (MDA-MB-435) | GI50 (786-0) | GI50 (T47D) | GI50 (MDA-N) | GI50 (M14) | GI50 (SNB-19) | GI50 (SK-MEL-2) | GI50 (SF-295) | GI50 (SNB-75) | GI50 (Hs-578T)
1 | CC(=O)O[C@H]1CCC2[C@@H]3CCC4Nc5oncc5C[C@]4(C)C3CC[C@@]21C (stereo not given in full) | > 10 µM (inactive) | > 10 µM (inactive) | > 10 µM (inactive) | > 10 µM (inactive) | 1.98 µM (inactive) | > 10 µM (inactive) | > 10 µM (inactive) | 3.94 µM (inactive) | > 10 µM (inactive) | > 10 µM (inactive) | > 10 µM (inactive) | 6.5 µM (inactive) | > 10 µM (inactive) | > 10 µM (inactive) | > 10 µM (inactive) | > 10 µM (inactive) | > 10 µM (inactive) | > 10 µM (inactive) |  | 
2 | CC1CCC(C(=O)O)(C(Br)C(=O)O)CC1 (stereo not given) | > 100 µM (inactive) | > 100 µM (inactive) | > 100 µM (inactive) | > 100 µM (inactive) | > 100 µM (inactive) | > 100 µM (inactive) | > 100 µM (inactive) |  | > 100 µM (inactive) | > 100 µM (inactive) | > 100 µM (inactive) | > 100 µM (inactive) |  | > 100 µM (inactive) | > 100 µM (inactive) | > 100 µM (inactive) | > 100 µM (inactive) | > 100 µM (inactive) | > 100 µM (inactive) | 
3 | CC[C@H](C)[C@H]1NC(=O)[C@@H](N)[C@@H](C)OC(=O)[C@H](Cc2ccc(OC)cc2)N(C)C(=O)[C@@H]2CCCN2C(=O)[C@H](CC(C)C)NC(=O)[C@@H](C)C(=O)[C@H](C(C)C)OC(=O)C[C@@H]1O (H-T[X36]LP[NMeY](Me); ester 1-C) | 16.3 µM (inactive) |  | 18.4 µM (inactive) | 29.6 µM (inactive) | 11.7 µM (inactive) | 10.1 µM (inactive) |  | 26.8 µM (inactive) | 19.3 µM (inactive) | 37.2 µM (inactive) | 15.5 µM (inactive) | 93.8 µM (inactive) |  |  | 4.84 µM (inactive) | 28.7 µM (inactive) | 46 µM (inactive) | 29.4 µM (inactive) | 13.2 µM (inactive) | 12.2 µM (inactive)
4 | O=C(/N=C1\SCCN1C(=O)C(C(F)(F)F)C(F)(F)F)C(C(F)(F)F)C(F)(F)F | > 100 µM (inactive) | > 100 µM (inactive) | > 100 µM (inactive) |  | > 100 µM (inactive) | > 100 µM (inactive) | > 100 µM (inactive) | > 100 µM (inactive) | > 100 µM (inactive) | > 100 µM (inactive) | > 100 µM (inactive) | > 100 µM (inactive) |  |  | > 100 µM (inactive) | > 100 µM (inactive) | > 100 µM (inactive) | > 100 µM (inactive) |  | 
5 | CC1(C)COC(c2cccc(C3=NC(C)(C)CO3)c2)=N1 | > 100 µM (inactive) | > 100 µM (inactive) | > 100 µM (inactive) |  |  | > 100 µM (inactive) | > 100 µM (inactive) | > 100 µM (inactive) | > 100 µM (inactive) | > 100 µM (inactive) | > 100 µM (inactive) | > 100 µM (inactive) | 3.75 µM (inactive) |  | > 100 µM (inactive) | > 100 µM (inactive) | > 100 µM (inactive) |  |  | 
6 | CCSc1[nH]c(Nc2nc(-c3ccccc3)n(-c3ccccc3)n2)c(C(N)=O)c1C(N)=O | > 10 µM (inactive) | > 10 µM (inactive) | > 10 µM (inactive) | > 10 µM (inactive) | > 10 µM (inactive) | > 10 µM (inactive) | > 10 µM (inactive) |  | > 10 µM (inactive) |  | > 10 µM (inactive) | > 10 µM (inactive) | > 10 µM (inactive) | > 10 µM (inactive) | > 10 µM (inactive) |  |  | 9.62 µM (inactive) | 9.44 µM (inactive) | 
7 | CC(C)(CO)NC(=O)c1cccs1 | > 100 µM (inactive) | > 100 µM (inactive) | > 100 µM (inactive) | > 100 µM (inactive) | > 100 µM (inactive) | > 100 µM (inactive) | > 100 µM (inactive) |  | > 100 µM (inactive) |  | > 100 µM (inactive) | > 100 µM (inactive) | > 100 µM (inactive) |  | > 100 µM (inactive) | > 100 µM (inactive) | > 100 µM (inactive) | > 100 µM (inactive) |  | 
8 | C=CCn1c(=O)c(C(=O)NC(=O)OCC)cn(C2CCCCC2)c1=O | > 100 µM (inactive) | > 100 µM (inactive) | > 100 µM (inactive) | > 100 µM (inactive) | > 100 µM (inactive) | > 100 µM (inactive) | > 100 µM (inactive) | > 100 µM (inactive) | > 100 µM (inactive) | > 100 µM (inactive) |  | > 100 µM (inactive) |  |  | > 100 µM (inactive) | > 100 µM (inactive) | > 100 µM (inactive) | > 100 µM (inactive) | > 100 µM (inactive) | 
9 | COC(=O)[C@@]12C(=O)CCC(=O)C1C1C(=CC2C)O[C@@H]2OC3(CCCCC3)O[C@H]12 (stereo not given in full) | 25.9 µM (inactive) | > 90.4 µM (inactive) | 40.3 µM (inactive) | > 100 µM (inactive) | 25.8 µM (inactive) | > 94.6 µM (inactive) | 40.5 µM (inactive) | > 100 µM (inactive) | > 100 µM (inactive) | > 100 µM (inactive) |  | > 83.6 µM (inactive) |  |  | > 100 µM (inactive) | > 89.5 µM (inactive) | > 100 µM (inactive) | > 100 µM (inactive) | > 85.1 µM (inactive) | 
10 | O=C1c2ccccc2C(=O)N1/N=C\c1ccc(Br)cc1 | > 10 µM (inactive) | > 10 µM (inactive) | > 10 µM (inactive) | > 10 µM (inactive) | > 10 µM (inactive) | > 10 µM (inactive) | > 10 µM (inactive) | > 10 µM (inactive) | > 10 µM (inactive) | > 10 µM (inactive) |  | > 10 µM (inactive) |  |  | > 10 µM (inactive) | > 10 µM (inactive) | > 10 µM (inactive) | > 10 µM (inactive) | > 10 µM (inactive) | 
11 | N#CN=C(NCc1ccccc1)NCc1ccccc1 | 27.9 µM (inactive) | > 100 µM (inactive) | > 75.3 µM (inactive) | > 100 µM (inactive) | > 100 µM (inactive) | > 100 µM (inactive) | > 100 µM (inactive) | > 100 µM (inactive) | > 83 µM (inactive) | > 100 µM (inactive) |  | > 60.7 µM (inactive) |  |  | > 100 µM (inactive) | > 100 µM (inactive) | > 100 µM (inactive) | > 100 µM (inactive) | > 100 µM (inactive) | 
12 | CCOC(=O)c1nc2ccc(C(F)(F)F)cc2nc1Nc1ccc(OC)cc1 | > 100 µM (inactive) |  | 68.2 µM (inactive) |  | > 100 µM (inactive) | 36.6 µM (inactive) | 12 µM (inactive) | 33 µM (inactive) | 50.1 µM (inactive) | 32.5 µM (inactive) | > 100 µM (inactive) | 25.8 µM (inactive) | > 100 µM (inactive) |  | 84.1 µM (inactive) | 33.6 µM (inactive) | 71.9 µM (inactive) | 26.9 µM (inactive) | 93.5 µM (inactive) | 35.2 µM (inactive)
13 | COc1cccc2c1N[S@](=O)S2 | 70.6 µM (inactive) | > 100 µM (inactive) | 46 µM (inactive) | 63.5 µM (inactive) | > 100 µM (inactive) | > 100 µM (inactive) | > 100 µM (inactive) | > 100 µM (inactive) | > 100 µM (inactive) | > 100 µM (inactive) |  | > 100 µM (inactive) |  |  | > 100 µM (inactive) | 38.1 µM (inactive) | > 100 µM (inactive) | 95.7 µM (inactive) | 81.5 µM (inactive) | 
14 | CC(C)N(C(=O)C12C3C4C5(C#N)C3C1(I)C5C42I)C(C)C (stereo not given) | 37.8 µM (inactive) | > 100 µM (inactive) | > 52.8 µM (inactive) | > 68.2 µM (inactive) | > 47.4 µM (inactive) | > 100 µM (inactive) | > 100 µM (inactive) | > 60.8 µM (inactive) | > 100 µM (inactive) | > 100 µM (inactive) |  | > 46.1 µM (inactive) |  |  | > 100 µM (inactive) | > 100 µM (inactive) | > 100 µM (inactive) | > 100 µM (inactive) | > 70.3 µM (inactive) | 
15 | CN(C)/C=N/S(=O)(=O)c1nn2c(C=O)c(-c3ccc(Cl)cc3)nc2s1 | 0.767 µM (active) | 0.995 µM (active) | 0.403 µM (active) | 2.23 µM (inactive) |  |  | 2.34 µM (inactive) | 2.13 µM (inactive) | 8.26 µM (inactive) | 4.25 µM (inactive) | 2.16 µM (inactive) | 1.25 µM (inactive) | 1.67 µM (inactive) |  | 0.962 µM (active) | 14.3 µM (inactive) | 7.11 µM (inactive) | 14.4 µM (inactive) | 11.2 µM (inactive) | 3.43 µM (inactive)
16 | O=C(COc1ccc(OCC(=O)N2C(=O)CN(c3ccc(Cl)cc3)C2=S)cc1)N1C(=O)CN(c2ccc(Cl)cc2)C1=S |  | 19.6 µM (inactive) | 29.3 µM (inactive) | 30.5 µM (inactive) |  | 26.6 µM (inactive) | 21.8 µM (inactive) |  | 21.5 µM (inactive) | 23.9 µM (inactive) | 31.2 µM (inactive) | 22.9 µM (inactive) |  | 29.9 µM (inactive) | 29 µM (inactive) | 24.4 µM (inactive) | 13.3 µM (inactive) | 29 µM (inactive) | 40.6 µM (inactive) | 
